Data as given in patent US7053194B2, “Compositions and methods for p53-mediated repression of gene expression” (Fox Chase Cancer Center, priority 1999, dated 2006).
Square brackets hold non-standard residues; d marks the D form. Peptide text beside a SMILES is read from it. Nle = CCCC[C@H](N)C(=O)O

Key:
[1] = test system: MCF-7 cells; assay: Immunoprecipitation-western analysis of p53 and p53-mSin3a complexes; type: cell-based, human; conditions: MCF-7, 50 uM ALLN, 2 hours
Procedure: (§1) Sub-confluent cultures of MCF 7 and A2780 cells were treated with 100 nM trichostatin A (TSA, Sigma)for 2 hours, followed by incubation with 0.5 ug/ml adriamycin (doxorubicin, Sigma) for the indicated timepoints. Va15 cells grown at 39 degrees were treated with 100 nM TSA for two hours, followed by temperature shift to 32 degrees for 12 hours. p53 induction was monitored by western analysis of 100 ug protein as described (Murphy et al., Genes & Devel. 10:2971–2980, 1996), using 0.1ug/ml DO-1 (Ab-6, Calbiochem) or 421 (Ab-1, Calbiochem). MDM2 induction was monitored using the monoclonal antibody 2A10, kindly provided by Arnold Levine (Rockefeller University). For UV treatments, cells were irradiated with 4 J/m2 of UV-C with a Spectroline X series ultraviolet lamp, and output was monitored with a traceable UV light meter (Fisher Scientific). For ALLN treatment, MCF-7 cells were treated with 50 uM ALLN (calpain I inhibitor, Sigma) made in DMSO (dimethyl sulfoxide, Sigma) or with DMSO alone for 2 hours prior to harvesting.
Sub-confluent cultures of cells were harvested and lysed in NP-40 buffer supplemented with protease inhibitors (1 mM PMSF, 10 ug/ml pepstatin A, 10 ug/ml aprotinin, and 5ug/ml leupeptin). Protein concentrations were determined by the method of Bradford (BioRad). Equal ug amounts of protein (between 2.0 and 3.0 mg) were immunoprecipitated with 1 ug of each antibody, except for Va15 immunoprecipitations, which used 1000 ug protein, as described (Murphy et al., Genes & Devel. 10:2971–2980, 1996). For p300, antibody N15 (Santa Cruz Biotechnology) and AB-1 (Calbiochem) yielded similar results. Each IP was washed twice in NP-40 buffer (Wu, et al., Genes & Devel. 7:1126–1132, 1993), followed by 2 washes in RIPA buffer (50 mM Tris pH 7.4/150 mM NaCl/1% Triton X 100/0.1% SDSI 1% Na deoxycholate). Immunoprecipitations were run on 7.5–10% SDS-PAGE gels and transferred overnight onto Immuno-Blot PVDF membrane (BioRad). […]
These complexes persisted under stringent washing conditions (RIPA buffer washes, see Materials and Methods), and were not present using control antisera (rabbit IgG, lane 1). […] We next analyzed the p53-mSin3a interaction following post-translational stabilization of p53 mediated by DNA damaging agents. […]
We next analyzed the time-course of the p53-mSin3a interaction following exposure of cells to the DNA damaging agent adriamycin (doxorubicin). Both p53-mSin3a and p53 p300 complexes were monitored by IP-western analysis in a time course following adriamycin treatment of MCF-7 cells. As a control, p53 was immunoprecipitated using polyclonal antisera generated against full-length p53 (Santa Cruz Biotechnology). p53 levels were also assessed at each time point by western analyses (data not shown). […]

[2] = test system: Va15 cells; assay: Flow cytometric analysis of cell cycle distribution; type: cell-based, murine; conditions: Va15 cells cultured at 32 degrees, TSA treatment, data not shown
[3] = test system: Va15 cells; assay: Northern analysis of Map4 mRNA after p53 induction by temperature shift; type: cell-based, murine; conditions: temperature shift to 32 degrees (wt p53), 100 nM TSA
Procedure: as §1
Total RNA was isolated from cells using CsC1 purification (Murphy et al., Genes & Devel. 10:2971–2980, 1996) or using Trizol, as per the manufacturer (Gibco/BRL). Northern analyses were performed as described (Murphy et al., Genes & Devel. 10:2971–2980, 1996). […] Autoradiographs were quantitated using NIH image software. […]

[4] = test system: Vm10 cells; assay: Flow cytometry of sub-G1 population; type: cell-based, murine; conditions: Vm10 at 32 degrees (wt p53), 100 nM TSA, data not shown
[5] = test system: MCF-7 cells; assay: Northern analysis of stathmin mRNA after adriamycin treatment; type: cell-based, human
Procedure: as §1
(§2) Total RNA was isolated from cells using CsC1 purification (Murphy et al., Genes & Devel. 10:2971–2980, 1996) or using Trizol, as per the manufacturer (Gibco/BRL). Northern analyses were performed as described (Murphy et al., Genes & Devel. 10:2971–2980, 1996). Probes for Northerns were radio labeled using random primers (Prime-It-II, Stratagene) and α^32P dCTP (NEN). Autoradiographs were quantitated using NIH image software. The average values from three independent experiments were plotted onto bar graphs following normalization to GAPDH.
(§3) To extend these observations, the human tumor derived cell lines MCF7 (breast carcinoma)and A2780 (ovarian carcinoma) were analyzed following treatment with adriamycin to activate the endogenous, wild type p53 protein. Because of difficulties detecting human Map4 message, we analyzed the mRNA levels of stathmin (also called oncoprotein 18). We recently identified stathmin as a p53-repressed gene. A time course of treatment of MCF-7 cells with the DNA-damaging agent adriamycin (doxorubicin, DOX) results in approximately 30% reduction of stathmin RNA levels after 8 hours and 75% reduction after 24 hours. We chose to focus further on the 12 hour timepoint of adriamycin treatment, where 50% repression of stathmin was evident, in order to limit the toxicity sometimes associated with TSA (Yoshida et al., J Biol Chem 265:17174–17179, 1990). […] The results of three independent experiments indicate that the repression of stathmin expression evident after 12 hours of adriamycin treatment is completely abrogated by incubation with TSA. In contrast, neither the post-translational stabilization of p53 by adriamycin (DOX) nor the induction of the p53 response genes mdm2 and p21/waf1 were affected by TSA. […] We have performed identical experiments in A2780 cells (ovarian carcinoma, wt p53).

[6] = test system: A2780 cells; assay: as above; type: cell-based, human; conditions: A2780, co-incubation with TSA, data not shown
Procedure: as §1, §2, §3

[7] = test system: Vm10 cells; assay: AMC caspase assay specific for caspase 3 (apoptosis); type: cell-based, murine
Procedure: Apoptosis was quantitated using the AMC caspase assay specific for caspase 3 (Pharmingen). Vm10 cells were grown at 39 degrees or temperature-shifted to 32 degrees for 24 hours in the presence or absence of 100 nM trichostatin A (TSA). Vm10 cells at 39 degrees were treated with staurosporine (Calbiochem) at 100 nM, or dilution vehicle (dimethyl sulfoxide), or tumor necrosis factor alpha plus cycloheximide (10 ng/mL TNFα, RD Systems, plus 40 ug/mL cycloheximide, Sigma). Cells were harvested, lysed, and lysate was monitored for the caspase-3-dependent hydrolysis of the fluorogenic substrate Ac-DEVD-AMC, according to protocols derived from the manufacturer (Pharmingen). As a control for non-specific proteolysis, lysates from 39 degrees and 32 degrees were also assayed in the presence of the caspase-3 inhibitor Ac-DEVD-CHO (N-acetyl-Asp-Glu-Val Asp-aldehyde, Pharmingen). Fluorescence emissions were quantified on a spectrofluorometer (VersaFluor Cuvette Fluorometer) with excitation wavelength of 360 nm. and emission of 460 nm. The data presented represent duplicate readings of the averaged values from two (TNFα and staurosporine) or three (temperature shift) independent experiments.
In order to assess the contribution of p53-mediated repression to apoptosis, we utilized the cell line Vm10. This murine cell line contains a stably-transfected p53 gene encoding a temperature-sensitive protein, as well as a constitutively expressed c-myc proto-oncogene; the characteristics of this line, and its ability to undergo apoptosis at 32 degrees, have been described (Chen et al., Mol Med 1:142–152, 1996). Temperature shift and wt p53 induction of these cells results in a significant increase in caspase-3 dependent AMC-DEVD hydrolysis, a read-out for apoptosis, as measured in a spectrofluorometric assay. […] Therefore, the ability of TSA to inhibit apoptosis is specific for p53-dependent apoptosis.

[8] = test system: H1299 human lung adenocarcinoma; assay: Northern analysis of stathmin mRNA in p53-null cells; type: cell-based; conditions: H1299, null for p53
[9] = test system: Va15 cells; assay: Western analysis of survivin in nocodazole-arrested cells; type: cell-based, murine; conditions: Va15 at 39 degrees, nocodazole alone, twenty-four hours
Procedure: Western analysis was performed essentially as described (Murphy et al., 1999). Briefly, subconfluent cells were harvested and lysed in RIPA buffer (50 mM Tris at pH 7.4, 150 mM NaCl, 1% Triton X-100, 0.1% SDS, and 1% sodium deoxycholate) supplemented with protease inhibitors (1 mM PMSF, […], […], and […]). Protein concentrations were determined using the Bio-Rad Dc Protein Assay (Bio-Rad). Equal amounts of protein (between 50 and 120 ugs) were run on 10% or 12% SDS-polyacrylamide gels and transferred overnight onto PVDF membrane (Bio-Rad). Western blots were incubated in antibody in 5% nonfat dry milk in phosphate-buffered saline supplemented with 0.2% Tween 20 (PBST). Blots were incubated with primary antibody at the following dilutions: p53 Ab-6 (Calbiochem) 1:1000, actin, AC-15 (Sigma) at 1:5000, p21/waf1 (Calbiochem) 1:1000 and survivin (Novus) 1:1000. Blots were washed with PBST and incubated in horseradish peroxidase-linked secondary antibody (Jackson ImmunoResearch Laboratories) and developed via the chemiluminescence protocol provided by the manufacturer (NEN).
Va15 cells (temperature-sensitive p53 which is wild type at 32 degrees) were grown at 39 degrees (mutant p53, asynchronous growth), and arrested in G2/M following twenty-four hours of nocodazole treatment. […]

CCCC[C@@H](C=O)NC(=O)[C@H](CC(C)C)NC(=O)[C@H](CC(C)C)NC(C)=O [ALLN] (Ac-Leu-Leu-[Nle]-aldehyde)
increase in p53 protein [1]: approximately 4 fold | increase in the p53-mSin3a complex [1]: undetectable increase in the p53-mSin3a complex

CC(/C=C/C(=O)NO)=C\[C@@H](C)C(=O)c1ccc(N(C)C)cc1 [TSA, trichostatin A]
cell cycle distribution [2]: did not alter the cell cycle distribution | Map4 RNA levels, % of starting levels [3]: approximately 80% | sub-G1 population [4]: reduces the sub-G1 population | effect on stathmin levels, TSA alone ([5]; MCF-7, 100 nM TSA alone): undetectable effects on stathmin levels | effect on reduction of stathmin levels following adriamycin treatment ([5]; MCF-7, 100 nM TSA plus adriamycin 12 hours): completely abrogate the reduction of stathmin levels | effect on adriamycin-induced repression of stathmin [6]: abrogate completely this repression | inhibition of caspase-3-dependent AMC hydrolysis ([7]; Vm10 at 32 degrees (wt p53), 100 nM TSA, 24 hours): greater than 4 fold | inhibition of apoptosis induced by staurosporine or tumor necrosis factor alpha ([7]; Vm10 at 39 degrees (mutant p53), TSA treatment): unable to significantly inhibit apoptosis | effect on stathmin levels [8]: neither TSA nor adriamycin had any effect on stathmin levels

COC(=O)Nc1nc2ccc(C(=O)c3cccs3)cc2[nH]1 [nocodazole]
survivin expression [9]: increased survivin expression

N-acetyl-Asp-Glu-Val Asp-aldehyde [Ac-DEVD-CHO]
AMC cleavage in lysate with caspase-3 inhibitor added ([7]; Vm10 lysate, addition of Ac-DEVD-CHO): negligible AMC cleavage
